In patent publication EP0552418A1, “N-substituted-3-iodopropiolamide, production and use thereof” (TAKEDA CHEMICAL INDUSTRIES, LTD., priority 1992, dated 1993):

Tests used:
[1] = system: wood rot fungi; experiment: Preserving activity for wood preservatives, overall statement for both wood rot fungi; type: cell-based, Tyromyces palustris, Coriolus versicolor; settings: statement in words on Table 2
Method: This test was conducted according to Specification No. 1 of Japan Wood Preserving Association, enacted in 1979, amended in 1989 and titled "Test methods of preserving activity for wood preservatives used in the coating, spraying and dipping treatment".
• ① Tyromyces palustris (Ber. et Curt.) Murr., FFPRI 0507 --"Ouzuratake" • ② Coriolus versicolor(L. ex Fr.) Quélet, FFPRI 1030 --"Kawaratake" These two fungi are classified as wood rot fungi.
The antimicrobial operation was performed with specifying types of fungi for corresponding type of trees. The combinations were as follows: Cedar----Tyromyces palustris ("Ouzuratake") Beech----Coriolus versicolor ("Kawaratake")
The test results were presented by the ratio of average weight loss of test specimens due to antimicrobial operation. The standard deviation and coefficient of variation were also determined. The ratio of weight loss for each test specimen was calculated by the following equation, and its average was also determined: The ratio of weight loss(%) = (W₃ - W₄ ) / W₃ × 100. Lower value of the ratio of weight loss corresponds to higher wood preserving activity. […]

[2] = system: Aspergillus Niger, Penicillium funiculosum, Rhizopus javanicus, Aureobasidium pullulans, Gliocladium virens; experiment: Fungicide activity for wood fungicide, sum over the five fungi and damage value; type: cell-based; settings: for damage value (D = S₁ / S₀ × 100): relative to untreated specimens (100.0), lower = higher activity; for wood fungicide activity: statement in words on Table 3
Method: This test was conducted according to Specification No.2 of Japan Wood Preserving Association, enacted in 1979 and titled "Test methods of fungicide activity for wood fungicide".
• ① Aspergillus niger van Tieghem IFO 6341 = ATCC 6275 • ② Penicillium funiculosum Thom (formerly : Penicillium luteum Zukal) IFO 6345 = ATCC 9644 . • ③ Rhizopus javanicus Takeda (formerly : Rhizopus nigricans Ehrenberg S.N. 32) IFO 6354 • ④ Aureobasidium pullulans (de Bary) Arnaud IFO 6353 = IAM (H. Iizuka, F-24) • ⑤ Gliocladium virens Miller, Gidden & Fosteb IFO 6355 = ATCC 9645 (formerly : Trichoderma viride, T.I.)
The average rating (A) was determined for each type of fungi with the following equation: Average rating (A) = (a₁ + a₂ + a₃ + a₄ + a₅ + a₆ ) / 6 [formula] wherein a₁, a₂ ...a₆ : rating for each test specimen.
The damage value was determined with the following equation after determining the sum of average rating by adding each rating of test specimens for each concentration of fungicide solution: S = A₁ + A₂ + A₃ + A₄ + A₅ [formula] wherein A₁, A₂.., A₅: average rating for each type of fungi D = S₁ / S₀ × 100 [formula] wherein S₀ : S for untreated test specimens S₁ : S for specimens treated with certain concentration of fungicide solution
Both lower rating value and lower damage value correspond to higher wood fungicide activity. […]

SMILES | wood preserving activity [1] | damage value (D = S₁ / S₀ × 100) ([2]; 0.5% xylene solution) | wood fungicide activity [2] | Sum (S = A₁ + A₂ + A₃ + A₄ + A₅) ([2]; 0.5% xylene solution, sum of average ratings of five fungi, untreated 15.0)
CC(C)(C)NC(=O)C#CI [Example 1, N-(tert-Butyl)-3-iodopropiolamide] | excellent wood preserving activity | 13.3 | excellent wood fungicide activity | 
CCCCCCCCCCNC(=O)C#CI [Example 2, N-(n-Decyl)-3-iodopropiolamide] | excellent wood preserving activity | 62.2 |  | 
CCCCNC(=O)C#CI [Example 4, N-(n-Butyl)-3-iodopropiolamide] | excellent wood preserving activity |  | excellent wood fungicide activity | 
CCC(C)NC(=O)C#CI (stereo not drawn) [Example 5, N-(sec-Butyl)-3-iodopropiolamide] | excellent wood preserving activity | 28.9 | excellent wood fungicide activity | 
CC(C)CNC(=O)C#CI [Example 6, N-Isobutyl-3-iodopropiolamide] | excellent wood preserving activity | 20.2 | excellent wood fungicide activity | 
CCCCCNC(=O)C#CI [Example 7, N-(n-Pentyl)-3-iodopropiolamide] | excellent wood preserving activity | 34.4 |  | 
CCCCCCNC(=O)C#CI [Example 8, N-(n-Hexyl)-3-iodopropiolamide] | excellent wood preserving activity | 23.3 | excellent wood fungicide activity | 
CCCCCCCCNC(=O)C#CI [Example 10, N-(n-Octyl)-3-iodopropiolamide] |  | 54.4 |  | 
CCCCCCCCCNC(=O)C#CI [Example 11, N-(n-Nonyl)-3-iodopropiolamide] |  | 82.2 |  | 12.3
